Reference: patent US6130229A, “Tricyclic compounds having activity as RAS-FPT inhibitors” (Schering Corporation, priority 1997, dated 2000)

Biological target: farnesyl protein transferase
Test: Inhibition of farnesyl protein transferase (test of WO 95/10514)
Format: biochemical
Conditions: percent inhibition relative to DMSO vehicle control, IC50 estimated
Source text: The compounds of the invention can be tested by standard methods, for example by those published in published PCT application WO 95/10514 published Apr. 20, 1995 (starting at page 61), the disclosure of which is hereby incorporated herein by reference. Particularly relevant assays and studies include In vitro enzyme assays, Cell-Based Assays, Cell Mat Assays, and In Vivo Anti-Tumor Studies.
Such Assays and Studies indicate that compounds of the Formula I above are selective inhibitors of Ras-FPT and can be used as anti-tumor agents. The following Table presents IC50 values obtained in the test for Inhibition of farnesyl protein transferase, reported in published PCT application WO 95/10514. Percent inhibition was calculated relative to the DMSO vehicle control, and an IC50 value was estimated.

Work on `NC(=O)N1CCC(CC(=O)N2CCC(=C3c4ccc(Cl)cc4SCc4cccnc43)CC2)CC1` [Example 15B, 4-[2-[4-(8-Chloro-5,11-dihydro-[1]benzothiepino[4,3-b]pyridin-11-ylidene)-1-piperidinyl]-2-oxoethyl]-1-piperidinecarboxamide] yielded an IC50 of 920 nM.
For `CN1Cc2cccnc2C(N2CCN(C(=O)CC3CCNCC3)CC2)c2ccc(Cl)cc21` (stereo not drawn) [Example 39, 4-(8-Chloro-6,11-dihydro-6-methyl-5H-pyrido[3,2-c][1]benzazepin-11-yl)-1-(4-piperidine-acetyl)piperazine], the IC50 was over 1300 nM.
`O=C(Cc1ccccc1[N+](=O)[O-])C(=O)N1CCN(C2c3ccc(Cl)cc3SCc3cccnc32)CC1` (stereo not drawn) [Example 13] gave an IC50 of 3800 nM.
Molecule `CN1Cc2cccnc2C(N2CCN(C(=O)Cc3ccncc3)CC2)c2ccc(Cl)cc21` (stereo not drawn) [Example 35, 4-(8-Chloro-6,11-dihydro-6-methyl-5H-pyrido[3,2-c][1]benzazepin-11-yl)-1-(4-pyridine-acetyl)piperazine] has an IC50 of 840 nM.
In the case of `CSC(=NC#N)N1CCN(C2c3ccc(Cl)cc3N(C)Cc3cccnc32)CC1` (stereo not drawn) [Example 36, Methyl 4-(8-chloro-6,11-dihydro-6-methyl-5H-pyrido[3,2-c][1]benzazepin-11-yl)-N-cyano-1-piperazinecarboximidothioate], the IC50 is reported as 1100 nM.
Molecule `O=C(Cc1ccncc1)N1CCC(=C2c3ccc(Cl)cc3S(=O)(=O)Cc3cccnc32)CC1` [Example 16B, 4-(8-Chloro-5,11-dihydro-[1]benzothiepino[4,3-b]pyridin-11-ylidene)-1-(4-pyridine-acetyl)piperidine 6,6-dioxide] has an IC50 of 560 nM.
`O=C(CC1CCNCC1)N1CCN(C2c3ccc(Cl)cc3SCc3cccnc32)CC1` (stereo not drawn) [Example 12A, 4-(8-Chloro-5,11-dihydro-[1]benzothiepino[4,3-b]pyridin-11-yl)-1-(4-piperidinyl-acetyl)piperazine] was tested, and the IC50 was 1100 nM.
`O=C(Cc1cccnc1)N1CCC(=C2c3ccc(Cl)cc3OCc3cccnc32)CC1` [Example 6, 4-(8-Chloro-5,11-dihydro[1]benz-oxepino[4,3-b]pyridin-11-ylidene)-1-(3-pyridine-acetyl)piperidine] was tested, and the IC50 was 2300 nM.
“4-(8-Chloro-5,11-dihydro-[1]benzothiepinof4,3-b]pyridin-11-yl)-1-(4-pyridine-acetyl)piperazine N1,6,6-trioxide [Example 17B]” gave an IC50 of over 1200 nM.
`N#CN=C(NCc1ccc[n+]([O-])c1)N1CCN(C2c3ccc(Cl)cc3SCc3cccnc32)CC1` (stereo not drawn) [Example 21, 4-(8-Chloro-5,11-dihydro[1]benzothiepino[4,3-b]pyridin-11-yl)-N-cyano-N'-(3-pyridinylmethyl)-1-piperazine-carboximidamide N1-oxide] gave an IC50 of 140 nM.
Molecule `CSC(=NC#N)N1CCC(=C2c3ccc(Cl)cc3SCc3cccnc32)CC1` [Example 22] has an IC50 of 200 nM.
`CC(C)(C)OC(=O)N1CCC(CC(=O)N2CCN(C3c4ccc(Cl)cc4SCc4cccnc43)CC2)CC1` (stereo not drawn) [Example 11A, 1,1-Dimethylethyl 4-[2-[4-(8-chloro-5,11-dihydro-[1]benzothiepino[4,3-b]pyridin-11-yl)-1-piperazinyl]2-oxoethyl]-1-piperidinecarboxylate] showed an IC50 of over 1100 nM.
`CSC(=NC#N)N1CCC(=C2c3ccc(Cl)cc3OCc3cccnc32)CC1` [Example 2] showed an IC50 of over 140 nM.
`CN1Cc2cccnc2C(N2CCN(C(=NCc3ccncc3)NC#N)CC2)c2ccc(Cl)cc21` (stereo not drawn) [Example 37, 4-(8-Chloro-6,11-dihydro-6-methyl-5H-pyrido[3,2-c][1]benzazepin-11-yl)-N-cyano-N'-(4-pyridinylmethyl)-1-piperazine-carboximidamide] was tested, and the IC50 was 140 nM.
`N#CC=C(c1ccc(F)cc1)N1CCC(=C2c3ccc(Cl)cc3SCc3cccnc32)CC1` [Example 33, 3-[4-(8-Chloro-5,11-dihydro-[1]benzothiepino[4,3-b]pyridin-11-ylidene)-piperidin-1-yl]-3-(4'-fluorophenyl)-2-propene-nitrile] gave an IC50 of over 420 nM.
Molecule `CC1(C)c2cccnc2C(=C2CCN(C(=O)Cc3cc[n+]([O-])cc3)CC2)c2ccc(Cl)cc2S1(=O)=O` [Example 30, 4-(8-Chloro-5,11-dihydro-5,5-dimethyl-[1]benzothiepino[4,3-b]pyridin-11-ylidene)-1-(4-pyridine-acetyl)piperidine-6,6-dioxide N1-oxide] has an IC50 of over 1100 nM.
`O=C(Cc1ccncc1)N1CCN(C2c3ccc(Cl)cc3[S+]([O-])Cc3cccnc32)CC1` (stereo not drawn) [Example 31, 4-(8-Chloro-5,11-dihydro-[1]benzothiepino[4,3-b]pyridin-11-yl)-1-(4-pyridine-acetyl)piperazine-6-oxide] gave an IC50 of 5000 nM.
With `O=C(CSc1ccncc1)N1CCN(C2c3ccc(Cl)cc3SCc3cccnc32)CC1` (stereo not drawn) [Example 14A, 4-(8-Chloro-5,11-dihydro-[1]benzothiepino[4,3-b]pyridin-11-yl)-1-[(4-pyridinyl-thio)acetyl]piperazine] the IC50 was 1000 nM.
In the case of `CN1Cc2cccnc2C(N2CCN(C(=O)Cc3cc[n+]([O-])cc3)CC2)c2ccc(Cl)cc21` (stereo not drawn) [Example 34], the IC50 is reported as 2700 nM.
`N#CNC(=NCc1ccncc1)N1CCC(=C2c3ccc(Cl)cc3OCc3cccnc32)CC1` [Example 3, 4-(8-Chloro-5,11-dihydro[1]benzoxepino[4,3-b]pyridin-11-ylidene)-N-cyano-N'-(4-pyridinylmethyl)-1-piperidine-carboximidamide] showed an IC50 of over 42 nM.
In the case of `O=C(Cc1ccncc1)N1CCC(=C2c3ccc(Cl)cc3SCc3cccnc32)CC1` [Example 25, 4-(8-Chloro-5,11-dihydro[1]benzothiepino[4,3-b]pyridin-11-ylidene)-1-(pyridine-4-acetyl)-piperidine], the IC50 is reported as 190 nM.
For `O=C(Cc1cc[n+]([O-])cc1)N1CCN(C2c3ccc(Cl)cc3SCc3cccnc32)CC1` (stereo not drawn) [Example 9A, 4-(8-Chloro-5,11-dihydro-[1]benzothiepino[4,3-b]pyridin-11-yl)-1-(4-pyridine-acetyl)piperazine N1-oxide], the IC50 was 790 nM.
In the case of `CN1Cc2cccnc2C(N2CCN(C(=O)CC3CCN(C(=O)OC(C)(C)C)CC3)CC2)c2ccc(Cl)cc21` (stereo not drawn) [Example 38, 1,1-Dimethylethyl 4-[2-[4-(8-chloro-6,11-dihydro-6-methyl-5H-pyrido[3,2-c][1]benzazepin-11-yl)-1-piperazinyl]2-oxoethyl]-1-piperidine-carboxylate], the IC50 is reported as over 3600 nM.
Work on `O=C(Cc1ccncc1)N1CCN(C2c3ccc(Cl)cc3SCc3cccnc32)CC1` (stereo not drawn) [Example 8, 4-(8-Chloro-5,11-dihydro-[1]benzothiepino[4,3-b]pyridin-11-yl)-1-(4-pyridinyl-acetyl)piperazine] yielded an IC50 of 320 nM.
For `N#CN=C(NCc1ccc2c(c1)OCO2)N1CCC(=C2c3ccc(Cl)cc3SCc3cccnc32)CC1` [Example 20B], the IC50 was over 113 nM.
Molecule `CC(C)(C)OC(=O)N1CCC(CC(=O)N2CCC(=C3c4ccc(Cl)cc4S(=O)(=O)Cc4cccnc43)CC2)CC1` [Example 27] has an IC50 of over 1200 nM.
In the case of `N#CN=C(NCc1ccc[n+]([O-])c1)N1CCC(=C2c3ccc(Cl)cc3SCc3cccnc32)CC1` [Example 24], the IC50 is reported as 38 nM.
`CSC(=NC#N)N1CCN(C2c3ccc(Cl)cc3SCc3cccnc32)CC1` (stereo not drawn) [Example 18, Methyl 4-(8-chloro-5,11-dihydro-[1]benzothiepino[4,3-b]pyridin-11-yl)-N-cyano-1-piperazinecarboximidothioate] showed an IC50 of 300 nM.
`O=C(Cc1cc[n+]([O-])cc1)N1CCC(=C2c3ccc(Cl)cc3OCc3cc(Br)cnc32)CC1` [Example 4, 4-(3-Bromo-8-chloro-5,11-dihydro[1]benzoxepino[4,3-b]pyridin-11-ylidene)-1-(4-pyridine-acetyl)piperidine N1-oxide] was tested, and the IC50 was 110 nM.
For `O=C(Cc1cc[n+]([O-])cc1)N1CCN(C2c3ccc(Cl)cc3OCc3cccnc32)CC1` (stereo not drawn) [Example 1, 4-(8-Chloro-5,11-dihydro[1]benzoxepino[4.3-b]pyridin-11-yl)-1-(4-pyridine-acetyl)-piperazine N1-oxide], the IC50 was 1280 nM.
Work on `CN1CCC(CC(=O)N2CCN(C3c4ccc(Cl)cc4SCc4cccnc43)CC2)CC1` (stereo not drawn) [Example 10, 4-(8-Chloro-5,11-dihydro-[1]benzothiepino[4,3-b]pyridin-11-yl)-1-(1-methyl-4-piperidine-acetyl)piperazine] yielded an IC50 of 2100 nM.
`N#CNC(=NCc1ccncc1)N1CCC(=C2c3ccc(Cl)cc3SCc3cccnc32)CC1` [Example 23, 4-(8-Chloro-5,11-dihydro[1]benzothiepino[4,3-b]pyridin-11-ylidene)-N-cyano-N'-(4-pyridinylmethyl)-1-piperidine-carboximidamide] showed an IC50 of 43 nM.
In the case of `CC(C)(C)OC(=O)N1CCC(CC(=O)N2CCC(=C3c4ccc(Cl)cc4SCc4cccnc43)CC2)CC1` [Example 11B, 1,1 -Dimethylethyl 4-[2-[4-(8-chloro-5,11-dihydro-[1]benzothiepino[4,3-b]pyridin-11-ylidene)-1-piperidinyl]2-oxoethyl]-1-piperidine-carboxylate], the IC50 is reported as 3200 nM.
`O=C(Cc1ccncc1)N1CCC(=C2c3ccc(Cl)cc3OCc3cccnc32)CC1` [Example 5, 4-(8-Chloro-5,11-dihydro[1]benz-oxepino[4,3-b]pyridin-11-ylidene)-1-(4-pyridine-acetyl)piperidine] was tested, and the IC50 was 760 nM.
`O=C(Cc1cc[n+]([O-])cc1)N1CCC(=C2c3ccc(Cl)cc3OCc3cccnc32)CC1` [Example 7B, 4-(8-Chloro-5,11-dihydro[1]benzoxepino[4,3-b]pyridin-11-ylidene)-1-(4-pyridine-acetyl)piperidine N1-oxide] was tested, and the IC50 was 1520 nM.
For `NC(=O)N1CCC(CC(=O)N2CCC(=C3c4ccc(Cl)cc4S(=O)(=O)Cc4cccnc43)CC2)CC1` [Example 29, 4-[2-[4-(8-Chloro-5,11-dihydro-[1]benzothiepino[4,3-b]pyridin-11-ylidene)-1-piperidinyl]-2-oxoethyl]-1-piperidinecarboxamide-6,6-dioxide], the IC50 was over 1100 nM.
